According to the NIST ThermoML archive (doi:10.1021/acs.jced.7b00613):
± gives the expanded uncertainty stated by the source.

Assays:
[1] = Liquid; for mass density: 293.15 K, 101.33 kPa, Vibrating tube method; for vapor or sublimation pressure: 278.15 K, Closed cell (Static) method
[2] = refractive index (Na D-line) (dimensionless); conditions: 293.15 K; 101.33 kPa; Liquid; Standard Abbe refractometry

mass density [1] | refractive index [2] | vapor or sublimation pressure [1] | SMILES
692 ± 1 kg/m3 | 1.391 ± 0.001 |  | CC(C)CC(C)(C)C [2,2,4-trimethylpentane]
660 ± 1 kg/m3 | 1.375 ± 0.001 |  | CCCCCC [hexane]
703 ± 1 kg/m3 | 1.396 ± 0.001 |  | CCCCCCCC [octane]
 |  | 2699 ± 14 kPa | CC [ethane]
 |  | 3962 ± 18 kPa | O=C=O [carbon dioxide]
